Source: paper PMC11002876, “KcsA-Kv1.x chimeras with complete ligand-binding sites provide improved predictivity for screening selective Kv1.x blockers” (The Journal of Biological Chemistry, 2024)
Changes are numbered by the printed parent chain. Where a SMILES comes first, the peptide text is derived from it.

Experiments:
KcsA-Kv1.3 T+F chimera = biological target: T1, KcsA-Kv1.3 T+F chimera (Streptomyces lividans, UniProt P0A334, A54D/A57S/G53D/G56T/I60S/L59F/L81M/Q58G/R52A/R64D/T61S/Y62I/Y82H); experiment: Phage ELISA-binding assay, KcsA-Kv1.3 T+F; set-up: species or system human Kv1.3 turret and filter in Streptomyces lividans KcsA; conditions: toxin displayed on M13 phage, Fig. 6D
T1 construct: made in house; host or cells: E. coli C41(DE3) (pET45b)
T1 sequence (P0A334 1-160 R52A/G53D/A54D/G56T/A57S/Q58G/L59F/I60S/T61S/Y62I/R64D/L81M/Y82H): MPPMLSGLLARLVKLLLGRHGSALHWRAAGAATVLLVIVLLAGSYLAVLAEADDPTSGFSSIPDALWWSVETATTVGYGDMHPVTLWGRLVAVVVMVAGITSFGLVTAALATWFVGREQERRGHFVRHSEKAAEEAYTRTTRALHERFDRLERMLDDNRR
Experimental: (§1) Phage display test solutions were prepared according to routine phage display protocols ([62]). Phosphorylated and annealed oligonucleotides encoding the peptide construct were ligated into linearized pAS62 phagemid vector (https://patents.google.com/patent/WO2022144560A1/en) at a vector/insert ratio of 1:3. The final phagemid construct harbored a signal sequence followed by the peptide of interest, a linker sequence ([…]), and the C-terminal part of the P3 coat protein (amino acids: 216-424 of NP_510891.1). Chemically competent XL1-Blue E. coli cells (2022249, Agilent) were transformed with the ligation product and then streaked onto ampicillin (100 μg/ml) containing LB/Amp plates and incubated for 16 h at 37 °C. A few clones were sequenced, and a single colony with confirmed target sequence was inoculated into 3 ml 2 YT medium supplemented with 100 μg/ml ampicillin and incubated at 37 °C until the culture reached midlog phase. The culture was infected with M13KO7 helper phage (N0315S, New England Biolabs) (phage/cell ratio 10:1) and was incubated for 30 min at 37 °C. The 3 ml culture was transferred into 200 ml 2YT medium, supplemented with 100 μg/ml ampicillin and 25 μg/ml kanamycin, and incubated overnight at 37 °C. The overnight cell culture (200 ml) was pelleted by centrifugation at 8000g for 10 min in 400 ml centrifuge tubes at 4 °C. […] The particle concentrations of phage solutions were determined using a NanoDrop One C (Thermo Fisher Scientific) spectrophotometer. The phage particle concentration was assessed according to the formula: (A268–A320) × 5 × 10^12 particles/ml ([62]). […]
(§2) Phage stock solutions were diluted to working concentration with phage resuspension buffer supplemented with 2 mM DDM. […] Following blocking, the wells were washed 4× with washing buffer (300 μl TBS-Tween, 0.1% v/v) using a Wellwash Versa microplate washer (Thermo Fisher Scientific); then 50 μl phage solution (in TBS-BSA-Tween, 0.1% v/v, 2 mM DDM) at determined phage concentration was added to the wells and incubated for 1 h at room temperature on a horizontal shaker. […]

[1] = biological target: T2, KcsA-Kv1.1 T-only chimera (Streptomyces lividans, UniProt P0A334, R52A/G53E/A54E/P55A/G56E/A57S/Q58H/L59F/I60S/T61S/Y62I/R64D); experiment: Phage ELISA-binding assay, KcsA-Kv1.1 T-only; set-up: species or system human Kv1.1 turret in Streptomyces lividans KcsA; conditions: toxin displayed on M13 phage; Fig. 8C
T2 sequence (P0A334 1-160 R52A/G53E/A54E/P55A/G56E/A57S/Q58H/L59F/I60S/T61S/Y62I/R64D): T1 sequence (P0A334 1-160 R52A/G53D/A54D/G56T/A57S/Q58G/L59F/I60S/T61S/Y62I/R64D/L81M/Y82H) with D53E, D54E, P55A, T56E, G58H, M81L, H82Y
Experimental: as §1, §2

Compound	rank order of phage binding to KcsA-Kv1.3 T+F (KcsA-Kv1.3 T+F chimera)	phage binding to KcsA-Kv1.1 T-only, in words [1]
CC[C@H](C)[C@@H]1NC(=O)CNC(=O)[C@H](Cc2ccccc2)NC(=O)[C@H](CCC(N)=O)NC(=O)[C@H](C)NC(=O)[C@H](CCCCN)NC(=O)[C@@H]2CSSC[C@@H](C(=O)N[C@@H](Cc3ccc(O)cc3)C(=O)N3CCC[C@H]3C(=O)N[C@@H](Cc3c[nH]cn3)C(=O)O)NC(=O)[C@H](CCCCN)NC(=O)[C@@H]3CSSC[C@H](NC(=O)[C@H](CCC(N)=O)NC(=O)[C@H](CCCCN)NC(=O)[C@@H]4CCCN4C(=O)[C@H](CO)NC(=O)[C@H]([C@@H](C)O)NC(=O)[C@@H](NC(=O)[C@H](CCCCN)NC(=O)[C@@H](NC(=O)[C@H](CC(=O)O)NC(=O)[C@@H](NC(=O)[C@@H](NC(=O)[C@@H](N)[C@@H](C)O)C(C)C)[C@@H](C)CC)C(C)C)CSSC[C@H](NC(=O)[C@H](CCCCN)NC(=O)[C@H](C)NC(=O)CNC(=O)[C@H](C)NC(=O)[C@H](CCCNC(=N)N)NC1=O)C(=O)N[C@@H](CCSC)C(=O)N[C@@H](CC(N)=O)C(=O)NCC(=O)N[C@@H](CCCCN)C(=O)N3)C(=O)N[C@@H](CC(C)C)C(=O)N1CCC[C@H]1C(=O)N1CCC[C@H]1C(=O)N2 [HgTx1, Hongotoxin-1] (HELM PEPTIDE1{T.V.I.D.V.K.C.T.S.P.K.Q.C.L.P.P.C.K.A.Q.F.G.I.R.A.G.A.K.C.M.N.G.K.C.K.C.Y.P.H}$PEPTIDE1,PEPTIDE1,7:R3-29:R3|PEPTIDE1,PEPTIDE1,13:R3-34:R3|PEPTIDE1,PEPTIDE1,17:R3-36:R3$$$V2.0; N-terminus and C-terminus assumed)	Vm24 > HgTx1 > KTX1	
CC[C@H](C)[C@H](NC(=O)[C@H](CCC(=O)O)NC(=O)[C@@H](NC(=O)CN)C(C)C)C(=O)N[C@@H](CC(N)=O)C(=O)N[C@H](C(=O)N[C@@H](CCCCN)C(=O)N[C@H]1CSSC[C@@H]2NC(=O)[C@H](CCCCN)NC(=O)CNC(=O)[C@H](Cc3ccccc3)NC(=O)[C@H](CCCNC(=N)N)NC(=O)[C@H](CCSC)NC(=O)CNC(=O)[C@H](C)NC(=O)[C@H](CC(=O)O)NC(=O)[C@H](CCCCN)NC(=O)[C@@H]3CSSC[C@@H](C(=O)N[C@H](C(=O)N4CCC[C@H]4C(=O)N[C@@H](CCCCN)C(=O)O)[C@@H](C)O)NC(=O)[C@H](Cc4c[nH]cn4)NC(=O)[C@H](CSSC[C@H](NC(=O)[C@H](CCC(N)=O)NC(=O)[C@@H]4CCCN4C(=O)[C@H](CO)NC(=O)CNC(=O)[C@H](CO)NC1=O)C(=O)N[C@@H](CC(C)C)C(=O)N[C@@H](CCCCN)C(=O)N1CCC[C@H]1C(=O)N3)NC(=O)[C@H](CCCCN)NC(=O)[C@H](CCCNC(=N)N)NC(=O)[C@H](CC(N)=O)NC(=O)[C@H](CCSC)NC2=O)C(C)C [KTX1, Kaliotoxin-1]	Vm24 > HgTx1 > KTX1	ShK > KTX1
CC[C@H](C)[C@@H]1NC(=O)[C@@H]2CSSC[C@H](NC(=O)[C@H](CO)NC(=O)[C@@H](N)C(C)C)C(=O)N[C@@H]([C@@H](C)O)C(=O)NCC(=O)N[C@@H](CO)C(=O)N[C@@H](CCCCN)C(=O)N[C@@H](CC(=O)O)C(=O)N[C@@H](CSSC[C@@H](C(=O)N[C@@H](CCCCN)C(=O)N[C@H]3CSSC[C@@H](C(N)=O)NC(=O)CNC(=O)[C@H](Cc4ccc(O)cc4)NC3=O)NC(=O)[C@H](CO)NC(=O)[C@H](CCCCN)NC(=O)[C@H](CC(N)=O)NC1=O)C(=O)N[C@@H](Cc1ccc(O)cc1)C(=O)N[C@@H](C)C(=O)N1CCC[C@H]1C(=O)N[C@H]1CSSC[C@H](NC(=O)CNC(=O)[C@H]([C@@H](C)O)NC(=O)[C@H](CCC(N)=O)NC(=O)[C@H](CCCCN)NC(=O)[C@H](CCCNC(=N)N)NC1=O)C(=O)N1CCC[C@H]1C(=O)N[C@@H](CC(N)=O)C(=O)N[C@@H](C)C(=O)N[C@@H](CCCCN)C(=O)N2 [MTX, Maurotoxin] (HELM PEPTIDE1{V.S.C.T.G.S.K.D.C.Y.A.P.C.R.K.Q.T.G.C.P.N.A.K.C.I.N.K.S.C.K.C.Y.G.C.[am]}$PEPTIDE1,PEPTIDE1,3:R3-24:R3|PEPTIDE1,PEPTIDE1,9:R3-29:R3|PEPTIDE1,PEPTIDE1,13:R3-19:R3|PEPTIDE1,PEPTIDE1,31:R3-34:R3$$$V2.0; N-terminus and C-terminus assumed)		negligible binding
CC[C@H](C)[C@@H]1NC(=O)[C@@H](NC(=O)[C@H](CO)NC(=O)[C@@H](N)CCCNC(=N)N)CSSC[C@@H](C(=O)O)NC(=O)[C@H]([C@@H](C)O)NC(=O)CNC(=O)[C@@H]2CSSC[C@@H]3NC(=O)[C@H](CCC(N)=O)NC(=O)[C@H](Cc4ccccc4)NC(=O)[C@H](C)NC(=O)[C@H]([C@@H](C)O)NC(=O)[C@H](CSSC[C@H](NC(=O)[C@H](Cc4ccccc4)NC(=O)[C@H](CO)NC(=O)[C@H](CC(C)C)NC(=O)[C@H](CCCNC(=N)N)NC(=O)[C@H](Cc4ccc(O)cc4)NC(=O)[C@H](CCCCN)NC(=O)[C@H](CCSC)NC(=O)[C@H](CO)NC(=O)[C@H](Cc4c[nH]cn4)NC(=O)[C@H](CCCCN)NC3=O)C(=O)N[C@@H](CCCNC(=N)N)C(=O)N[C@@H](CCCCN)C(=O)N[C@@H]([C@@H](C)O)C(=O)N2)NC(=O)[C@H](CCCNC(=N)N)NC(=O)[C@H](CO)NC(=O)[C@H](CCCCN)NC(=O)[C@@H]2CCCN2C(=O)[C@H]([C@@H](C)CC)NC(=O)[C@H]([C@@H](C)O)NC(=O)[C@H](CC(=O)O)NC1=O [ShK, Stichodactyla toxin]		ShK > KTX1
CC[C@H](C)[C@H](NC(=O)[C@H](C)NC(=O)[C@H](C)NC(=O)[C@H](C)N)C(=O)N[C@@H](CO)C(=O)N[C@H]1CSSC[C@@H]2NC(=O)[C@H](CCCCN)NC(=O)CNC(=O)[C@H](CC(N)=O)NC(=O)[C@H](CCCCN)NC(=O)[C@@H]3CSSC[C@@H](C(N)=O)NC(=O)[C@H](Cc4ccc(O)cc4)NC(=O)[C@H](Cc4ccc(O)cc4)NC(=O)[C@@H]4CSSC[C@H](NC(=O)[C@H](CCCCN)NC(=O)[C@@H]5CCCN5C(=O)[C@@H]5CCCN5C(=O)[C@H](CSSC[C@H](NC(=O)[C@H](CCCCN)NC(=O)[C@H](CCCNC(=N)N)NC(=O)[C@H](CC(N)=O)NC(=O)[C@H](CCSC)NC2=O)C(=O)N[C@@H](CCCCN)C(=O)N4)NC(=O)[C@H](CCC(=O)O)NC(=O)[C@@H]2CCCN2C(=O)[C@H](CO)NC(=O)CNC(=O)[C@H](C(C)C)NC1=O)C(=O)N[C@@H](CCCNC(=N)N)C(=O)N[C@@H](C)C(=O)N[C@@H](CCC(N)=O)C(=O)NCC(=O)N3 [Vm24, Vm24 toxin]	Vm24 > HgTx1 > KTX1	
